Results from patent US20220025334A1, “SYNTHETIC FOOD COMPOSITIONS” (Wild Type, Inc., priority 2018, published 2022).
Entries after “also recorded” stand apart in the source; their conditions may differ.

Test system: duck hepatocytes
Test: Induction of steatosis in cultured duck hepatocytes by fatty acid incubation
Assay type: cell-based

With `CCCCC/C=C\C/C=C\CCCCCCCC(=O)O` [linoleic acid] the “dose response: linoleic acid concentration versus percentage of hepatocytes having steatosis” value (0, 0.1, 0.25, 0.5, 1, 2 μM linoleic acid (FIG. 16B)) was “corresponding increase in the percentage of hepatocytes with steatosis”, the “induction of steatosis (accumulation of intracellular lipid-containing vesicles)” value (2 μM linoleic acid vs untreated control, duck hepatocytes (FIG. 16A)) was “successful induction of steatosis; also recorded: successfully induced to undergo steatosis” and the “percentage of steatotic hepatocytes” value (2 μM linoleic acid, duck hepatocytes (FIG. 16B)) was “above 85%”.
